# Laboratory results taken from US10034886B2, “GLP-1 receptor modulators” (Celgene International II SÀRL, priority 2014, dated 2018).
# Where two headings read alike, the source gives them in different places.
# Target: T1, GLP-1R (Homo sapiens, UniProt P43220)
# T1 construct: host or cells: GLP-1R CRE-bla CHO-K1 cells
# Experiment: EC20 GLP-1(9-36) PAM cAMP assay: dose response of compound in the presence of fixed concentration of GLP-1(9-36)
# Assay type: cell-based
# Conditions: GLP-1R CRE-bla CHO-K1 cells, read-out: EC20 GLP-1(9-36) PAM EC50
# How it was run: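 GLP-1R CRE-bla CHO-K1 cells treated 30 min at 37 °C with 12-point compound dose response plus fixed EC20 GLP-1(9-36), with IBMX, in HBSS/HEPES/0.1% BSA pH 7.4. Total cAMP measured by luminescent detection against standard curve; EC50 and Emax from non-linear regression.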
# [1] = dose response of compound in presence of fixed concentration of GLP-1(9-36)
# [2] = compound dose response with fixed concentration of GLP-1(9-36)
# T1 sequence (P43220 24-463): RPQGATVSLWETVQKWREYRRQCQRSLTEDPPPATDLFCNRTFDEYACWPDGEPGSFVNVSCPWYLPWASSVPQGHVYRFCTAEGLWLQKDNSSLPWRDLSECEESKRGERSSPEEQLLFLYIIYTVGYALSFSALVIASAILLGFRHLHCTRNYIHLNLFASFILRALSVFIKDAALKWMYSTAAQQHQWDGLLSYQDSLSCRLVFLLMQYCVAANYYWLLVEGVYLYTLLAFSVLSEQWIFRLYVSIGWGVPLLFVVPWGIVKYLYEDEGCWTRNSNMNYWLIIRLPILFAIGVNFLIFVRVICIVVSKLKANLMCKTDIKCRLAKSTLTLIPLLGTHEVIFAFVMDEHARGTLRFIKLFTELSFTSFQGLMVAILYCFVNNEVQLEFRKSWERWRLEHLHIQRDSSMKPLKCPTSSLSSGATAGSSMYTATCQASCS
# T1 sequence (P01275 100-127 partner limits assumed): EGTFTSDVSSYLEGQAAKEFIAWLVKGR
SMILES,EC50 [1] [nM],EC50 [2] [nM]
CCCCCCCOc1ccc(-c2cnc(-c3ccc(C[C@H](NC(=O)c4ccc(C(C)(C)C)s4)C(=O)N[C@@H](C(=O)O)C(C)C)cc3)nc2)cc1 [Compound 889],800 to 2500,–
CCCCCc1noc(-c2cnc(-c3ccc(C[C@H](NC(=O)c4ccc(C(C)(C)C)cc4)C(=O)NCCC(=O)O)cc3)nc2)n1 [Compound 753],2500 to 5000,–
CCCCOc1ccc(-c2cnc(-c3ccc(C[C@H](NC(=O)c4ccc(C(C)(C)C)cc4)C(=O)N[C@H](C)C(=O)O)cc3)nc2)cc1 [Compound 717],800 to 2500,–
CC[C@H]1CC[C@H](c2ccc(-c3cnc(-c4ccc(C[C@H](NC(=O)c5cnn(C(C)(C)C)c5)C(=O)O)cc4)nc3)cc2)CC1 [Compound 1378],–,< 800
CCCCCCCOc1ccc(-c2cnc(-c3ccc(C[C@H](NC(=O)c4ccc(OC)cc4)C(=O)N[C@H](C)C(=O)O)cc3)nc2)cc1 [Compound 817],800 to 2500,–
CCCCCCCOc1ccc(-c2cnc(-c3ccc(C[C@H](NC(=O)c4ccc(C(F)(F)F)s4)C(=O)N[C@H](C)C(=O)O)cc3)nc2)cc1 [Compound 815],< 800,–
CCC[C@H]1CC[C@H](C2CCN(c3cnc(-c4ccc(C[C@H](NC(=O)c5ccc(C(C)(C)C)s5)C(=O)N5CCC[C@H](C(=O)O)C5)cc4)nc3)CC2)CC1 [Compound 1456],–,< 800
CCCCCCCOc1ccc(-c2cnc(-c3ccc(C[C@H](NC(=O)c4ccc(C(C)(C)C)s4)C(=O)N4CCC[C@H]4C(=O)O)cc3)nc2)nc1 [Compound 1064],800 to 2500,–
CCCCCCCOc1ccc(-c2cnc(-c3ccc(C[C@H](NC(=O)c4ccc(CC(C)C)s4)C(=O)N4CC[C@H](C(=O)O)C4)cc3)nc2)cc1 [Compound 847],2500 to 5000,–
CC[C@H]1CC[C@H](c2ccc(-c3cnc(-c4ccc(C[C@H](NC(=O)c5cnc(C(C)(C)C)nc5)C(=O)O)cc4)nc3)cc2)CC1 [Compound 1368],–,< 800
Cc1ccccc1C1CCN(c2cnc(-c3ccc(C[C@H](NC(=O)c4ccc(C(C)(C)C)s4)C(=O)N4CC(C(=O)O)C4)cc3)nc2)CC1 [Compound 1475],–,< 800
CCCCCCCOc1ccc(-c2cnc(-c3ccc(C[C@H](NC(=O)c4ccc(C(C)(C)C)s4)C(=O)NC[C@H]4CCCN4C)cc3)nc2)cc1 [Compound 973],5000 to 10000,–
CCCCCCCOc1ccc(-c2cnc(-c3ccc(C[C@H](NC(=O)c4ccc(C(C)(C)C)s4)C(=O)N4CC(CN(C)C)C4)cc3)nc2)cc1 [Compound 975],5000 to 10000,–
CCCCCCCOc1ccc(-c2cnc(-c3ccc(C[C@H](NC(=O)c4ccc(CC)cc4)C(=O)N[C@H](C)C(=O)O)cc3)nc2)cc1 [Compound 828],< 800,–
COc1ccc(C2CCN(c3cnc(-c4ccc(CC(NC(=O)c5ccc(C(C)(C)C)s5)C(=O)N5CC(C(=O)O)C5)cc4)nc3)CC2)c(C)c1 (stereo not shown) [Compound 1483],–,800 to 2500
CCCCCCCOc1ccc(-c2cnc(-c3ccc(C[C@H](NC(=O)c4ccc(C(C)(C)C)cc4)C(=O)NCc4ccc(C(=O)O)o4)cc3)nc2)cc1 [Compound 572],800 to 2500,–
C[C@@H](NC(=O)[C@H](Cc1ccc(-c2ncc(-c3ccc4c(c3)Cc3ccccc3-4)cn2)cc1)NC(=O)c1ccc(C(C)(C)C)s1)C(=O)O [Compound 1299],–,800 to 2500
CCC[C@H]1CC[C@H](C2CCN(c3cnc(-c4ccc(C[C@H](NC(=O)c5ccc(OC(C)C)cc5)C(=O)N5CC(C(=O)O)C5)cc4)nc3)CC2)CC1 [Compound 1535],–,800 to 2500
CCCCCCCOc1ccc(-c2cnc(-c3ccc(C[C@H](NC(=O)c4ccc(C(C)(C)C)s4)C(=O)N4CC[C@@H]4C(=O)O)cc3)nc2)cc1 [Compound 669],800 to 2500,–
CCCCCCCOc1ccc(-c2cnc(-c3ccc(C[C@H](NC(=O)CN(C)C)C(=O)N[C@H](C)C(=O)O)cc3)nc2)cc1 [Compound 826],2500 to 5000,–
CCCCCCCOc1ccc(-c2cnc(-c3ccc(C[C@H](NC(=O)c4ccc(C(C)(C)C)cc4)C(=O)N[C@H](CCN)C(=O)O)cc3)nc2)cc1 [Compound 476],2500 to 5000,–
Cc1ccc(-c2ccc(-c3cnc(-c4ccc(C[C@H](NC(=O)c5ccc(C(C)(C)C)s5)C(=O)N[C@H](C)C(=O)O)cc4)nc3)cc2)cc1 [Compound 1283],–,< 800
CC(C)(C)c1ccc(C(=O)N[C@@H](Cc2ccc(-c3ncc(-c4ccc(OCC5CCCC5)cc4)cn3)cc2)C(=O)N2CC(C(=O)O)C2)s1 [Compound 922],5000 to 10000,–
C[C@@H](NC(=O)[C@H](Cc1ccc(-c2ncc(-c3cccc(C(=O)Nc4cccc(F)c4)c3)cn2)cc1)NC(=O)c1ccc(C(C)(C)C)s1)C(=O)O [Compound 1032],800 to 2500,–
CCCCCCCOc1ccc(-c2cnc(-c3ccc(C[C@H](NC(=O)c4ccc(C(C)(C)C)s4)C(=O)N4CC(CN)(C(=O)O)C4)cc3)nc2)cc1 [Compound 1280],–,< 800
CCCc1ccc(C(=O)N[C@@H](Cc2ccc(-c3ncc(-c4ccc(OCCCC(C)C)cc4)cn3)cc2)C(=O)N2CC(C(=O)O)C2)cc1 [Compound 1232],–,800 to 2500

SMILES,EC50 [1] [nM],EC50 [2] [nM]
CCCCCCCOc1ccc(-c2cnc(-c3ccc(C[C@H](NC(=O)c4ccc(C(C)(C)C)s4)C(=O)N4CC[C@H](O)C4)cc3)nc2)cc1 [Compound 977],5000 to 10000,–
CC(C)(C)c1ccc(C(=O)N[C@@H](Cc2ccc(-c3ncc(N4CCC(c5ccccc5)CC4)cn3)cc2)C(=O)N2CC(C(=O)O)C2)s1 [Compound 1426],–,800 to 2500
CCCCCCOCC1CCN(c2cnc(-c3ccc(C[C@H](NC(=O)c4ccc(C(C)(C)C)cc4)C(=O)NCCC(=O)O)cc3)nc2)CC1 [Compound 693],5000 to 10000,–
CCCc1ccc(-c2ccc(-c3cnc(-c4ccc(C[C@H](NC(=O)c5ccc(C(C)(C)CC)cc5)C(=O)N5CC(C(=O)O)C5)cc4)nc3)c(F)c2)cc1 [Compound 1402],–,< 800
CCCCCCCOc1ccc(-c2cnc(-c3ccc(C[C@H](NC(=O)c4ccc(C(C)(C)C)cc4)C(=O)NC(CN(C)C)C(=O)O)cc3)nc2)cc1 (stereo partly shown) [Compound 447],800 to 2500,–
CCCCCCCOc1ccc(-c2cnc(-c3ccc(C[C@H](NC(=O)c4ccc(C(C)(C)C)s4)C(=O)NC(Cc4c[nH]c5ncccc45)C(=O)O)cc3)nc2)cc1 (stereo partly shown) [Compound 626],< 800,–
CCCCCCCOc1ccc(N2CCN(c3ccc(C[C@H](NC(=O)c4ccc(C(C)(C)C)cc4)C(=O)N[C@H](C)C(=O)O)cc3)CC2)cc1 [Compound 804],800 to 2500,–
CCCCCCOc1ccc(-c2ccc(-c3ccc(C[C@H](NC(=O)c4ccc(C(C)(C)C)cc4)C(=O)O)cc3)cn2)cc1 [Compound 270],2500 to 5000,–
CC[C@H]1CC[C@H](c2ccc(-c3cnc(-c4ccc(C[C@H](NC(=O)c5ccc(C)s5)C(=O)O)cc4)nc3)cc2)CC1 [Compound 1385],–,5000 to 10000
CC(C)(C)c1ccc(C(=O)N[C@@H](Cc2ccc(-c3ncc(-c4ccc([C@H]5CC[C@H](C(F)(F)F)CC5)cc4)cn3)cc2)C(=O)N2CC(C(=O)O)C2)s1 [Compound 1184],< 800,–
C[C@@H](NC(=O)[C@H](Cc1ccc(-c2ncc(-c3ccc(-c4ccc(C(F)(F)F)cc4)cc3F)cn2)cc1)NC(=O)c1ccc(C(C)(C)C)s1)C(=O)O [Compound 1174],< 800,–
CCc1ccc(C(=O)N[C@@H](Cc2ccc(-c3ncc(-c4ccc([C@H]5CC[C@H](CC)CC5)cc4)cn3)cc2)C(=O)N2CC(C(=O)O)C2)s1 [Compound 1153],< 800,–
CCCCCCCOc1ccc(-c2cnc(-c3ccc(C[C@H](NC(=O)c4ccc(C(C)(C)C)cc4)C(=O)N[C@H](CC(=O)NC)C(=O)O)cc3)nc2)cc1 [Compound 591],< 800,–
CC(C)Oc1ccc(-c2cnc(-c3ccc(C[C@H](NC(=O)c4ccc(C(C)(C)C)s4)C(=O)NC(C(=O)O)C(O)c4ccccc4)cc3)nc2)cc1 (stereo partly shown) [Compound 931],2500 to 5000,–
CCCCCCCOc1ccc(-c2cnc(-c3ccc(C[C@H](NC(=O)c4ccc(C(C)(C)C)cc4)C(=O)NC(C(=O)O)c4ccc(C(F)(F)F)cc4)cc3)nc2)cc1 (stereo partly shown) [Compound 453],800 to 2500,–
CC(C)(C)c1ccc(C(=O)N[C@@H](Cc2ccc(-c3ncc(-c4ccc([C@H]5CC[C@H](C)CC5)cc4)cn3)cc2)C(=O)O)s1 [Compound 1358],–,2500 to 5000
COc1ccc2cc(-c3cnc(-c4ccc(C[C@H](NC(=O)c5ccc(C(C)(C)C)s5)C(=O)N[C@H](C)C(=O)O)cc4)nc3)ccc2c1 [Compound 997],5000 to 10000,–
CC(C)[C@H]1CC[C@@H](c2ccc(-c3cnc(-c4ccc(C[C@H](NC(=O)c5ccc(C(C)(C)C)s5)C(=O)N5CC(C(=O)O)C5)cc4)nc3)cc2)CC1 [Compound 1179],< 800,–
CCCCCCCc1ccc(-c2cnc(-c3ccc(C[C@H](NC(=O)c4ccc(C(C)(C)C)cc4)C(=O)N[C@H](C)C(=O)O)cc3)nc2)cc1 [Compound 724],800 to 2500,–
CC[C@H]1CC[C@H](c2ccc(-c3cnc(-c4ccc(C[C@H](NC(=O)c5ccc(C(C)C)cc5)C(=O)O)cc4)nc3)cc2)CC1 [Compound 1387],–,< 800
CCCCCCCOc1ccc(-c2cnc(-c3ccc(C[C@H](NC(=O)c4ccc(C(C)(C)C)s4)C(=O)N4CCCNCC4)cc3)nc2)cc1 [Compound 966],5000 to 10000,–
CCCCCCCOc1ccc(-c2cnc(-c3ccc(C[C@H](NC(=O)c4ccc(CCC)s4)C(=O)N[C@H](C)C(=O)O)cc3)nc2)cc1 [Compound 840],800 to 2500,–
C[C@@H](NC(=O)[C@H](Cc1ccc(-c2ncc(-c3ccc(Cl)cc3)cn2)cc1)NC(=O)c1ccc(C(C)(C)C)s1)C(=O)O [Compound 1029],2500 to 5000,–
CC[C@H]1CC[C@H](c2ccc(-c3ccc(-c4ccc(C[C@H](NC(=O)c5ccc(C(C)(C)C)s5)C(=O)N5CC(C(=O)O)C5)cc4)cn3)cc2)CC1 [Compound 1341],–,< 800
CCCCCCCOc1ccc(-c2cnc(-c3ccc(C[C@H](NC(=O)c4ccc(C(C)(C)C)cc4)C(=O)N[C@@H](CC(=O)NCCO)C(=O)O)cc3)nc2)cc1 [Compound 508],< 800,–
CCCCCCCOc1ccc(-c2cnc(-c3ccc(C[C@H](NC(=O)c4ccc(C(C)(C)C)s4)C(=O)N4CC(C(=O)O)C4)cc3)nc2)nc1 [Compound 1066],800 to 2500,–
